# What was measured:
# Format in all cases: in vivo
# Inbred C57J/L male mice = test: Serum cholesterol of mice on lithogenic diet
# Procedure: Inbred C57J/L male mice (Jackson Lab., Maine, USA) 4-6 weeks old weighing 20-25 gm were used. They were given their regular diet supplemented with (% w/w) Butter fat 15, Cholesterol 1, Cholic Acid 0.5, Corn Oil 2 (modified from Khanuia et al., Proc. Natnl. Acad. Sci. USA 1995; 92:7729-33) for 4-8 weeks (Lithogenic diet #2). Half of the group were given 3β-arachidylamido-7α,12α-dihydroxy-5β-cholan-24-oic acid at a dose of 150 mg/kg/day suspended in saline by intragastric gavage. The other half were similarly given an equal volume of saline. After 4-8 weeks the animals were anesthetized, heart blood was drawn for analysis. The liver and other organs were removed. Serum cholesterol levels were determined by autoanalyzer.
# Another group of C57 J/L male inbred mice (Jackson Laboratories, Maine, USA) 4-6 weeks old weighing 20-25 gm. were given a lithogenic diet (No. 2) for 8 weeks and then a regular diet for another 8 weeks. During the 8 weeks of the regular diet part of the animals were given 3β-arachidylamido-7α,12α-dihydroxy-5β-cholan-24-oic acid by intragastric gavage at a dose of 150 mg/kg/day. After a total of 16 weeks the animals were anesthetized, heart blood was drawn for analysis. Liver and other organs were removed. Serum cholesterol levels were analyzed as above. A third group of animals were given a regular diet throughout the 16 weeks and then similarly analyzed.
# Inbred C57J/L mice = test: Liver lipid/protein ratio, mice on high fat lithogenic diet; details: BAFAC 150 mg/Kg daily by gavage, 5 weeks
# Procedure: Inbred C57J/L mice, 4 weeks old and weighing approx. 20 gm (Jackson Lab. Maine, USA) were used. They were fed for 5 weeks a high fat lithogenic diet consisting of: Cholesterol 1%, Cholic Acid 0.5%, lard 10%, butter 6%, palmitic acid 1.2% and corn oil 2% added (w/w) to their regular diet. In addition to the diet the animals were given daily, by gavage, either a BAFAC (150 mg/Kg) suspended in saline or an equal volume of saline only. The BAFACs were conjugates of cholic acid (at position 3) with either Palmitic Acid (C-16) or Arachidic Acid (C-20) or Behenic Acid (C-22) using an amide bond. The controls (n=5) received saline, the test animals received either the C-16 conjugate (n=5), the C-20 conjugate (n=5) or the C-22 conjugate (n=3). After 5 weeks, following an overnight fast, the animals were anesthetized using ketamine, the liver was removed, and the animals were sacrificed by ketamine overdose. A 0.5 gm sample of liver was homogenized in 5 ml of buffered saline. Liver lipids were extracted from the homogenate by the Folch method using chloroform:methanol (2:1, vol/vol). Half a ml of the homogenate were extracted in 5 ml of the Folch solution. After evaporation of the solvent the lipids were weighed and reevaporated several times until constant weight was obtained. The proteins were quantified in another aliquot of the homogenate according to the method of Bradford. (Bradford M. M., Annal Biochem. 1976, 72:248).
# The lipid protein ratio (mg/mg) was calculated. The results for each group are given as means (+St. Dev.) The group values were: […]
# human patients [1] = test: Human study: change in glucose; parameters: Change from Baseline in Glucose, Mean / Change from Baseline in Glucose, Median / Change from Baseline in Glucose, Max: unit not given here
# Procedure: (§1) The effects of BAFACs on disorders associated with Fatty liver, insulin resistance and altered glucose metabolism were tested on 60 human patients. Experiments were subdivided to 2 dosage regimens: Aramchol 300 mg daily (high dose) and 100 mg daily (low dose) respectively for a total period time of 3 months. The Aramchol:placebo ratio is of 2:1 for the low dose arm, and 1:1 for the high dose arms.
# (§2) The study period included a 3 month treatment period with Aramchol low dose, or Aramchol high dose, or placebo, and a one month follow-up period. Aramchol was given daily orally. During the treatment period, all patients attended periodic […] (at first month) and subsequently monthly study-center visits in order to assess safety and efficacy of the treatment.
# The results are shown using two known in the art principle statistical evaluation on, Intention-To-Treat (ITT) and Per Protocol (PP) populations. The ITT principle asserts that the effect of a treatment policy can be best assessed by evaluation on the basis of the intention to treat a subject (i.e. the planned treatment regimen) rather than the actual treatment given. It has the consequence that subjects allocated to a treatment group should be followed up, assessed and analyzed as members of that group irrespective of their compliance to the planned course of treatment. […] Compliance covers such considerations as exposure to treatment, availability of measurements and absence of major protocol violations.
# human patients [2] = test: Human study: safety; details: Aramchol at 300 and 100 mg/d oral, 3 months, vs placebo
# Procedure: as §1, §2
# No changes in adverse events or in vital signs were observed between the groups.
# [3] = Aramchol 100 mg/d, Visit 3, ITT
# [4] = Aramchol 100 mg/d, Visit 4, ITT
# [5] = Aramchol 100 mg/d, Visit 5, ITT
# [6] = Aramchol 100 mg/d, Visit 6, ITT
# [7] = Aramchol 100 mg/d, Visit 7, ITT
# [8] = Aramchol 300 mg/d, Visit 3, ITT
# [9] = Aramchol 300 mg/d, Visit 4, ITT
# [10] = Aramchol 300 mg/d, Visit 5, ITT
# [11] = Aramchol 300 mg/d, Visit 6, ITT
# [12] = Aramchol 300 mg/d, Visit 7, ITT
compound,measurement,setting,value
"CCCCCCCCCCCCCCCCCCCC(=O)N[C@H]1CC[C@@]2(C)[C@@H](C1)C[C@@H](O)[C@@H]1[C@@H]2C[C@H](O)[C@]2(C)[C@@H]([C@H](C)CCC(=O)O)CC[C@@H]12 [Aramchol, 3β-arachidylamido-7α,12α-dihydroxy-5β-cholan-24-oic acid]",Serum Cholesterol (mean + StD),"Inbred C57J/L male mice; Lithogenic diet 2 + BAFAC II 150 mg/kg/day by gavage, 4 W",143 (19.8) mg %
same,Serum Cholesterol (mean + StD),"Inbred C57J/L male mice; Lithogenic diet 2 + BAFAC II 150 mg/kg/day by gavage, 6 W",125 (10.8) mg %
same,Serum Cholesterol (mean + StD),"Inbred C57J/L male mice; Lithogenic diet 2 + BAFAC II 150 mg/kg/day by gavage, 8 W",139 (0.7) mg %
same,Serum Cholesterol (mean + StD),"Inbred C57J/L male mice; Lithogenic diet 2 for 8 W then regular diet 8 W with BAFAC II 150 mg/kg/day, total 16 W",65 (6.8) mg %
same,"lipid protein ratio in liver, mean (+St. Dev.)",Inbred C57J/L mice,1.44 ± 1.18 mg/mg
same,"Change from Baseline in Glucose, Max",human patients [1]; [3],17.0
same,"Change from Baseline in Glucose, Mean",human patients [1]; [3],−2.0
same,"Change from Baseline in Glucose, Median",human patients [1]; [3],0.0
same,"Change from Baseline in Glucose, Min",human patients [1]; [3],−38.0
same,"Change from Baseline in Glucose, Max",human patients [1]; [4],16.0
same,"Change from Baseline in Glucose, Mean",human patients [1]; [4],−2.2
same,"Change from Baseline in Glucose, Median",human patients [1]; [4],1.0
same,"Change from Baseline in Glucose, Min",human patients [1]; [4],−33.0
same,"Change from Baseline in Glucose, Max",human patients [1]; [5],21.0
same,"Change from Baseline in Glucose, Mean",human patients [1]; [5],−1.0
same,"Change from Baseline in Glucose, Median",human patients [1]; [5],0.5
same,"Change from Baseline in Glucose, Min",human patients [1]; [5],−30.0
same,"Change from Baseline in Glucose, Max",human patients [1]; [6],39.0
same,"Change from Baseline in Glucose, Mean",human patients [1]; [6],−1.1
same,"Change from Baseline in Glucose, Median",human patients [1]; [6],−2.0
same,"Change from Baseline in Glucose, Min",human patients [1]; [6],−32.0
same,"Change from Baseline in Glucose, Max",human patients [1]; [7],23.0
same,"Change from Baseline in Glucose, Mean",human patients [1]; [7],0.8
same,"Change from Baseline in Glucose, Median",human patients [1]; [7],−1.0
same,"Change from Baseline in Glucose, Min",human patients [1]; [7],−41.0
same,"Change from Baseline in Glucose, Max",human patients [1]; [8],19.0
same,"Change from Baseline in Glucose, Mean",human patients [1]; [8],−1.3
same,"Change from Baseline in Glucose, Median",human patients [1]; [8],1.0
same,"Change from Baseline in Glucose, Min",human patients [1]; [8],−32.0
same,"Change from Baseline in Glucose, Max",human patients [1]; [9],16.0
same,"Change from Baseline in Glucose, Mean",human patients [1]; [9],−2.4
same,"Change from Baseline in Glucose, Median",human patients [1]; [9],−1.5
same,"Change from Baseline in Glucose, Min",human patients [1]; [9],−24.0
same,"Change from Baseline in Glucose, Max",human patients [1]; [10],18.0
same,"Change from Baseline in Glucose, Mean",human patients [1]; [10],−3.3
same,"Change from Baseline in Glucose, Median",human patients [1]; [10],−5.0
same,"Change from Baseline in Glucose, Min",human patients [1]; [10],−46.0
same,"Change from Baseline in Glucose, Max",human patients [1]; [11],13.0
same,"Change from Baseline in Glucose, Mean",human patients [1]; [11],−2.0
same,"Change from Baseline in Glucose, Median",human patients [1]; [11],−2.5
same,"Change from Baseline in Glucose, Min",human patients [1]; [11],−22.0
same,"Change from Baseline in Glucose, Max",human patients [1]; [12],82.0
same,"Change from Baseline in Glucose, Mean",human patients [1]; [12],3.8
same,"Change from Baseline in Glucose, Median",human patients [1]; [12],3.0
same,"Change from Baseline in Glucose, Min",human patients [1]; [12],−22.0
same,glucose levels (in words),"human patients [1]; Aramchol 300 mg/d, tested subjects, Table 7",remarkably reduces glucose levels
same,"Safety (adverse events, vital signs)",human patients [2],not associated with any safety concerns

# Reference: US8975246B2, “Bile acid or bile salt fatty acid conjugates” (Galmed Research and Development Ltd., priority 2001, dated 2015)
